Converted amounts (≈) assume the structure as drawn. Read-outs that look alike come from different tables or passages of the source. Non-standard residues stand in square brackets, D forms with d. Residues, ends and D or L forms follow the SMILES beside them. *: point of attachment. Lauroyl = CCCCCCCCCCCC(=O)*
Experiments:
[1] = system: Propionibacterium acnes ATCC 6919; assay type: cell-based
Experimental: A second method that was used to determine the MIC in P. acnes for selected antimicrobial agents was a non-standard broth microdilution method that used an assay buffer composed of reinforced Clostridial broth. Briefly, a log-phase bacterial culture of P. acnes was used to inoculate wells of a 96-well plate so that the final inoculum for each well contained 5×10^5 to 1×10^6 CFU/milliliter. […] Plates were incubated for 48-72 hours at 37° C. in a GasPak anaerobic chamber. The lowest concentration of peptide that contained no visible growth as evidenced by a lack of turbidity when compared to the control (no peptide) was determined as the MIC. MIC values that utilized this method of MIC determination are indicated in Table 9 with a subscript letter “d.”

[2] = system: Staphylococcus aureus ATCC 29213; conditions: ATCC 29213, pH 7.4
[3] = system: Salmonella dublin (Lane); conditions: pH 7.4
[4] = system: Staphylococcus aureus ATCC 29213; assay: MIC, NCCLS M7-A6 broth microdilution, cation-adjusted Mueller Hinton broth (Table 9, no superscript); assay type: cell-based; conditions: ATCC 29213
In short: (§1)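 Broth microdilution in cation-adjusted Mueller Hinton broth, log-phase inoculum giving 5×10^5 to 1×10^6 CFU/milliliter per well. Overnight incubation at 37° C. MIC taken as lowest peptide concentration with no visible turbidity versus a no-peptide control.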

[5] = system: Escherichia coli ATCC 25922; assay: MIC, NCCLS M7-A6 broth microdilution (Table 9, no superscript); assay type: cell-based; conditions: ATCC 25922
In short: as §1

[6] = system: Pseudomonas aeruginosa ATCC 27853; assay: as above; assay type: cell-based; conditions: ATCC 27853
In short: as §1

[7] = system: Salmonella dublin (Lane); assay: as above; assay type: cell-based
In short: as §1

[8] = system: Staphylococcus epidermidis ATCC 12228; assay: as above; assay type: cell-based; conditions: ATCC 12228
In short: as §1

[9] = system: Candida albicans ATCC 18804; assay: MIC in yeasts, NCCLS M27-A2 broth microdilution, RPMI 1640 (Table 9, letter e); assay type: cell-based; conditions: ATCC 18804
In short: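 Plates incubated 24 to 48 hours at 37° C, with yeast seeded at 0.5×10^3–2.5×10^3 CFU/milliliter final in RPMI 1640 (glutamine, phenol red indicator). MIC was read as the lowest peptide concentration showing no visible growth.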

[10] = system: human red blood cells; assay type: cell-based; conditions: red cells of human
Experimental: Hemoglobin-release assays with human red blood cells (RBC) were performed to determine the hemolytic activity of granulysin peptides. Human RBCs (San Diego Blood Bank, San Diego, Calif.) were washed three times in PBS buffer (8 mM Na2HPO4, 1.5 mM KH2PO4, 140 mM NaCl and 2.7 mM KCl, pH 7.4), resuspended in PBS to the concentration of 5% (v/v). The RBC were then exposed to different peptide compositions at various concentrations (100-6.25 micromolar) and incubated at 37° C. for 60 minutes in a total volume of 120 microliters. Every experiment included a negative control without peptide and maximum control treated with 5% TX-100 for complete hemoglobin release. Samples were centrifuged for 1 minute at 13,000 g to remove debris and intact cells. The hemoglobin-containing supernatant was removed and transferred to a microwell plate. Hemoglobin release was quantified at A540 using a Versamax plate reader (Molecular Devices). The degree of hemolysis is expressed as percentage of hemolysis compared to the […], using the following formula: % hemolysis=(sample−neg. control)/(max. control−neg. control)×100.

| MIC P. acnes [1] | MIC S. aureus [2] | MIC S. dublin [3] | MIC S. aureus [4] | MIC E. coli [5] | MIC P. aeruginosa [6] | MIC S. dublin [7] | MIC S. epidermidis [8] | MIC C. albicans [9] | Structure (SMILES) | Hemolytic effect on human red blood cells ([10]; 6.25 Micromolar) | Hemolytic effect on human red blood cells ([10]; 12.5 Micromolar) | Hemolytic effect on human red blood cells ([10]; 25 Micromolar) | Hemolytic effect on human red blood cells ([10]; 50 Micromolar) | Hemolytic effect on human red blood cells ([10]; 100 Micromolar) |
| --- | --- | --- | --- | --- | --- | --- | --- | --- | --- | --- | --- | --- | --- | --- |
| 12.5 µg·days/mL | – | – | 8 µg/mL (≈ 2.87 µM) | 32 µg/mL (≈ 11.5 µM) | 64 µg/mL (≈ 22.9 µM) | 16 µg/mL (≈ 5.73 µM) | 2 µg/mL (≈ 0.716 µM) | 16e ug/mL | CCCCCCCCCCCC(=O)N[C@H](C(=O)N[C@@H](CCCNC(=N)N)C(=O)N[C@H](C(=O)N[C@@H](CO)C(=O)N[C@@H](CCCNC(=N)N)C(=O)N[C@H](C(=O)NCC(=O)N[C@@H](CCCNC(=N)N)C(=O)N[C@@H](CO)C(=O)N[C@@H](CCCNC(=N)N)C(=O)N[C@@H](Cc1c[nH]c2ccccc12)C(=O)N[C@@H](CCCNC(=N)N)C(=O)N[C@@H](CC(=O)O)C(=O)N[C@@H](Cc1c[nH]c2ccccc12)C(=O)N[C@@H](CO)C(=O)N[C@@H](CCCNC(=N)N)C(=O)N[C@@H](CC(N)=O)C(=O)N[C@@H](Cc1ccccc1)C(=O)N[C@@H](CCSC)C(=O)N[C@@H](CCCNC(=N)N)C(N)=O)[C@@H](C)O)C(C)C)[C@@H](C)O [Peptide 63] (Lauroyl-TRVSRTGRSRWRDWSRNFMR-NH2) | – | – | – | – | – |
| 12.5 µg·days/mL | – | – | 16 µg/mL (≈ 5.8 µM) | – | – | 16 µg/mL (≈ 5.8 µM) | – | 8e ug/mL | CCCCCCCCCCCC(=O)N[C@@H](C(=O)N[C@H](CCCNC(=N)N)C(=O)N[C@@H](C(=O)N[C@H](C)C(=O)N[C@H](CCCNC(=N)N)C(=O)N[C@@H](C(=O)NCC(=O)N[C@H](CCCNC(=N)N)C(=O)N[C@H](CO)C(=O)N[C@H](CCCNC(=N)N)C(=O)N[C@H](Cc1c[nH]c2ccccc12)C(=O)N[C@H](CCCNC(=N)N)C(=O)N[C@H](CC(=O)O)C(=O)N[C@H](Cc1c[nH]c2ccccc12)C(=O)N[C@H](C)C(=O)N[C@H](CCCNC(=N)N)C(=O)N[C@H](CC(N)=O)C(=O)N[C@H](Cc1ccccc1)C(=O)N[C@H](CCSC)C(=O)N[C@H](CCCNC(=N)N)C(N)=O)[C@H](C)O)C(C)C)[C@H](C)O [Peptide 77, Lauryl-trvartgrsrwrdwarnfmr-NH2] (Lauroyl-[dT][dR][dV][dA][dR][dT]G[dR][dS][dR][dW][dR][dD][dW][dA][dR][dN][dF][dM][dR]-NH2) | – | – | – | – | – |
| – | – | – | – | 8 µg/mL (≈ 2.58 µM) | >64 µg/mL | – | 2 µg/mL (≈ 0.644 µM) | – | CCCCCCCCCCCC(=O)N[C@@H](C(=O)N[C@H](CCCNC(=N)N)C(=O)N[C@@H](C(=O)N[C@H](CO)C(=O)N[C@H](CCCNC(=N)N)C(=O)N[C@@H](C(=O)NCC(=O)N[C@H](CCCNC(=N)N)C(=O)N[C@H](CO)C(=O)N[C@H](CCCNC(=N)N)C(=O)N[C@H](Cc1c[nH]c2ccccc12)C(=O)N[C@H](CCCNC(=N)N)C(=O)N[C@H](CC(=O)O)C(=O)N[C@H](Cc1c[nH]c2ccccc12)C(=O)N[C@H](CO)C(=O)N[C@H](CCCNC(=N)N)C(=O)N[C@H](CC(N)=O)C(=O)N[C@H](Cc1ccccc1)C(=O)N[C@H](CCSC)C(=O)N[C@H](CCCNC(=N)N)C(=O)N[C@H](C)C(=O)N[C@H](C)C(=O)N[C@@H](CCCCNC(C)=O)C(N)=O)[C@H](C)O)C(C)C)[C@H](C)O [Peptide 85, Lauryl-trvsrtgrsrwrdwsrnfmraaK(Ac)-NH2] | 16% | 26% | 36% | 53% | 83% |

Further lines, the compound ahead of its results:

| Structure (SMILES) | MIC P. acnes [1] | MIC S. aureus [2] | MIC S. dublin [3] | MIC S. aureus [4] | MIC E. coli [5] | MIC P. aeruginosa [6] | MIC S. dublin [7] | MIC S. epidermidis [8] | MIC C. albicans [9] | Hemolytic effect on human red blood cells ([10]; 6.25 Micromolar) | Hemolytic effect on human red blood cells ([10]; 12.5 Micromolar) | Hemolytic effect on human red blood cells ([10]; 25 Micromolar) | Hemolytic effect on human red blood cells ([10]; 50 Micromolar) | Hemolytic effect on human red blood cells ([10]; 100 Micromolar) |
| --- | --- | --- | --- | --- | --- | --- | --- | --- | --- | --- | --- | --- | --- | --- |
| CSCC[C@H](NC(=O)[C@H](Cc1ccccc1)NC(=O)[C@H](CC(N)=O)NC(=O)[C@H](CCCNC(=N)N)NC(=O)[C@H](CO)NC(=O)[C@H](Cc1c[nH]c2ccccc12)NC(=O)[C@H](CC(=O)O)NC(=O)[C@H](CCCNC(=N)N)NC(=O)[C@H](Cc1c[nH]c2ccccc12)NC(=O)[C@H](CCCNC(=N)N)NC(=O)[C@H](CO)NC(=O)[C@H](CCCNC(=N)N)NC(=O)CNC(=O)[C@@H](NC(=O)[C@H](CCCNC(=N)N)NC(=O)[C@H](CO)NC(=O)[C@@H](NC(=O)[C@H](CCCNC(=N)N)NC(=O)[C@@H](NC(C)=O)[C@@H](C)O)C(C)C)[C@@H](C)O)C(=O)N[C@@H](CCCNC(=N)N)C(=O)N[C@@H](CCCNC(=N)N)C(=O)N[C@@H](CCCNC(=N)N)C(N)=O [Peptide 13] (Ac-TRVSRTGRSRWRDWSRNFMRRR-NH2) | 25 µg·days/mL | 25b ug/mL | 25b ug/mL | – | – | – | – | – | – | – | – | – | – | – |
| CSCC[C@@H](NC(=O)[C@@H](Cc1ccccc1)NC(=O)[C@@H](CC(N)=O)NC(=O)[C@@H](CCCNC(=N)N)NC(=O)[C@@H](C)NC(=O)[C@@H](Cc1c[nH]c2ccccc12)NC(=O)[C@@H](CC(=O)O)NC(=O)[C@@H](CCCNC(=N)N)NC(=O)[C@@H](Cc1c[nH]c2ccccc12)NC(=O)[C@@H](CCCNC(=N)N)NC(=O)[C@@H](CO)NC(=O)[C@@H](CCCNC(=N)N)NC(=O)CNC(=O)[C@H](NC(=O)[C@@H](CCCNC(=N)N)NC(=O)[C@@H](C)NC(=O)[C@H](NC(=O)[C@@H](CCCNC(=N)N)NC(=O)[C@H](NC(C)=O)[C@H](C)O)C(C)C)[C@H](C)O)C(=O)N[C@H](CCCNC(=N)N)C(N)=O [Peptide 56, Ac-trvartgrsrwrdwarnfmr-NH2] (Ac-[dT][dR][dV][dA][dR][dT]G[dR][dS][dR][dW][dR][dD][dW][dA][dR][dN][dF][dM][dR]-NH2) | 6 µg·days/mL | – | – | >64 µg/mL | 4 µg/mL (≈ 1.53 µM) | >64 µg/mL | 8 µg/mL (≈ 3.05 µM) | 2 µg/mL (≈ 0.763 µM) | 64e ug/mL | – | – | – | – | – |
| CCCCCCCCCCCC(=O)N[C@H](CCCNC(=N)N)C(=O)N[C@H](CO)C(=O)N[C@H](CCCNC(=N)N)C(=O)N[C@H](Cc1c[nH]c2ccccc12)C(=O)N[C@H](CCCNC(=N)N)C(=O)N[C@H](CC(=O)O)C(=O)N[C@H](Cc1c[nH]c2ccccc12)C(=O)N[C@H](CO)C(=O)N[C@H](CCCNC(=N)N)C(=O)N[C@H](CC(N)=O)C(=O)N[C@H](Cc1ccccc1)C(=O)N[C@H](CCSC)C(=O)N[C@H](CCCNC(=N)N)C(N)=O [Peptide 89, Lauryl-rsrwrdwsrnfmr-NH2] (Lauroyl-[dR][dS][dR][dW][dR][dD][dW][dS][dR][dN][dF][dM][dR]-NH2) | 25 µg·days/mL | – | – | 4 µg/mL (≈ 1.97 µM) | – | – | 4 µg/mL (≈ 1.97 µM) | – | 32e ug/mL | – | – | – | – | – |
| CSCC[C@H](NC(=O)[C@H](Cc1ccccc1)NC(=O)[C@H](CC(N)=O)NC(=O)[C@H](CCCNC(=N)N)NC(=O)[C@H](CO)NC(=O)[C@H](Cc1c[nH]c2ccccc12)NC(=O)[C@H](CC(=O)O)NC(=O)[C@H](CCCNC(=N)N)NC(=O)[C@H](Cc1c[nH]c2ccccc12)NC(=O)[C@H](CCCNC(=N)N)NC(=O)[C@H](CO)NC(=O)[C@H](CCCNC(=N)N)NC(C)=O)C(=O)N[C@@H](CCCNC(=N)N)C(N)=O [Peptide 91, Ac-RSRWRDWSRNFMR-NH2] (Ac-RSRWRDWSRNFMR-NH2) | 25 µg·days/mL | – | – | >64 µg/mL | – | – | >64 µg/mL | – | 16e ug/mL | – | – | – | – | – |
| CSCC[C@H](NC(=O)[C@H](Cc1ccccc1)NC(=O)[C@H](CC(N)=O)NC(=O)[C@H](CCCNC(=N)N)NC(=O)[C@H](C)NC(=O)[C@@H](NC(=O)[C@H](CC(=O)O)NC(=O)[C@H](CCCNC(=N)N)NC(=O)[C@H](Cc1c[nH]c2ccccc12)NC(=O)[C@H](CCCNC(=N)N)NC(=O)[C@H](CO)NC(=O)[C@H](CCCNC(=N)N)NC(C)=O)C(C)C)C(=O)N[C@@H](CCCNC(=N)N)C(N)=O [Peptide 92, Ac-RSRWRDVARNFMR-NH2] (Ac-RSRWRDVARNFMR-NH2) | 25 µg·days/mL | – | – | >64 µg/mL | – | – | >64 µg/mL | – | 8e ug/mL | – | – | – | – | – |

Reference: patent publication US20050282755A1, “Compositions having antimicrobial activity and uses thereof” (priority 2004, published 2005)
